Source: patent US9598387B2 (Southern Research Institute, priority 2012, dated 2017)

Tests used:
[1] = target: human D2-long dopamine receptor (Homo sapiens (Human), UniProt P14416); assay: Radioligand binding (125I-IABN competition), D2; details: HEK cell membranes expressing human D2-long
Method: (§1) The affinities of the target compounds were determined using radioligand binding experiments. […] Competition curves were modeled for a single site. Data from competition dose-response curves were analyzed using Tablecurve program (Jandel). IC50 values were converted to equilibrium dissociation constants (Ki values) using the Cheng and Prusoff correction.

[2] = target: human D3 dopamine receptor (Homo sapiens (Human), UniProt P35462); assay: Radioligand binding (125I-IABN competition), D3; details: for Ki: 125I-IABN competition, HEK cell membranes expressing human D3; for D2/D3 (D3 selectivity ratio, D2 Ki/D3 Ki): calculated D2 Ki/D3 Ki
Method: as §1

Chain of human D3 dopamine receptor (P35462 whole entry): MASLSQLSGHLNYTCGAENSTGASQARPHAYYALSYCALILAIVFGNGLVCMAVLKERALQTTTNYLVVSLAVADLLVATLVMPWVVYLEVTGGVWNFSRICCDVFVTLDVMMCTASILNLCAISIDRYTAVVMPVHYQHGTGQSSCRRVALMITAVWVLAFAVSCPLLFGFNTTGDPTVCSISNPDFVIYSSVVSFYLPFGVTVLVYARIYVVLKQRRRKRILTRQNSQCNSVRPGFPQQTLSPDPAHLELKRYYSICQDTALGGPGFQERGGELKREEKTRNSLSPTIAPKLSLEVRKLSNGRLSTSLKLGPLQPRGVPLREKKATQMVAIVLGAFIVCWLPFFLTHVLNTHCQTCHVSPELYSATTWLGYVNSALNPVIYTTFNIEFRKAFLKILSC
Chain of human D2-long dopamine receptor (P14416 whole entry): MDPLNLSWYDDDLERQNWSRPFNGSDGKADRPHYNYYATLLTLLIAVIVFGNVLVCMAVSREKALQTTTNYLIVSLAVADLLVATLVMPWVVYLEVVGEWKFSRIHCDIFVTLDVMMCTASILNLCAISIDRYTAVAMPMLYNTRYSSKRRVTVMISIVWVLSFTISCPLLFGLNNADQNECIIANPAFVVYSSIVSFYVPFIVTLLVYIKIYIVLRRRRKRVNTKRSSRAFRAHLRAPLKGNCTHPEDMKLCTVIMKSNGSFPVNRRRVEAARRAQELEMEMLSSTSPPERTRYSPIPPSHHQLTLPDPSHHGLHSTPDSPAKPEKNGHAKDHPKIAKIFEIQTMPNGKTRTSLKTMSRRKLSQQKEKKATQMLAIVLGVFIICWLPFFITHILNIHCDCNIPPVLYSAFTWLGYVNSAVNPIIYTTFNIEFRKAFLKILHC

Compound | Ki [1] | Ki [2] | D2/D3 (D3 selectivity ratio, D2 Ki/D3 Ki) [2]
Cc1ccccc1N1CCN(C(=O)NCCCCN2CCN(c3cc(C(F)(F)F)nc(C(C)(C)C)n3)CC2)CC1 [Compound 58, N-(4-(4-(2-(tert-Butyl)-6-(trifluoromethyl)pyrimidin-4-yl)piperazin-1-yl)butyl)-4-(o-tolyl)piperazine-1-carboxamide] | 789 ± 192 nM | 70.6 ± 14.8 nM | 11
O=C(NCCCCN1CCN(c2ccc3ccccc3n2)CC1)c1cn2cccnc2n1 [Compound 126, N-(4-(4-(Quinolin-2-yl)piperazin-1-yl)butyl)imidazo[1,2-a]pyrimidine-2-carboxamide] | 1260 ± 142 nM | 161 nM | 8
O=C(NCCCCN1CCN(c2ccnc3cc(Cl)ccc23)CC1)N1CCC(c2ccccc2)CC1 [Compound 85, N-(4-(4-(7-Chloroquinolin-4-yl)piperazin-1-yl)butyl)-4-phenylpiperidine-1-carboxamide] | 2790 ± 942 nM | 87.9 ± 22.8 nM | 32
Cc1cc(N2CCN(CCCCNC(=O)C3CCN(c4ccc(C(F)(F)F)cn4)CC3)CC2)nc(C(C)(C)C)n1 [Compound 107, N-(4-(4-(2-(tert-Butyl)-6-methylpyrimidin-4-yl)piperazin-1-yl)butyl)-1-(5-(trifluoromethyl)pyridin-2-yl)piperidine-4-carboxamide] | 970 ± 137 nM | 30.6 ± 7.4 nM | 32
O=C(NCCCCN1CCN(c2ccnc3cc(Cl)ccc23)CC1)N1CCN(c2ccccc2)CC1 [Compound 12, N-(4-(4-(7-Chloroquinolin-4-yl)piperazin-1-yl)butyl)-4-phenylpiperazine-1-carboxamide] | 933 ± 91 nM | 26.9 ± 4.9 nM | 35
CC(C)(C)c1nc(N2CCN(CCCCNC(=O)N3CCC(O)(c4ccccc4)CC3)CC2)cc(C(F)(F)F)n1 [Compound 49, N-(4-(4-(2-(tert-Butyl)-6-(trifluoromethyl)pyrimidin-4-yl)piperazin-1-yl)butyl)-4-hydroxy-4-phenylpiperidine-1-carboxamide] | 1270 ± 291 nM | 27 ± 3.9 nM | 47
Cc1nc(N2CCN(CCCCNC(=O)N3CCc4[nH]c5ccc(Cl)cc5c4C3)CC2)cc(C(C)(C)C)n1 [Compound 95, N-(4-(4-(6-(tert-Butyl)-2-methylpyrimidin-4-yl)piperazin-1-yl)butyl)-8-chloro-3,4-dihydro-1H-pyrido[4,3-b]indole-2(5H)-carboxamide] | 5560 ± 1340 nM | 215 ± 45.5 nM | 26
O=C(NCCCCN1CCN(c2ccnc3cc(Cl)ccc23)CC1)C1CCC(c2ccccc2)CC1 (stereo not drawn) [Compound 105, N-(4-(4-(7-Chloroquinolin-4-yl)piperazin-1-yl)butyl)-4-phenylcyclohexanecarboxamide] | 1020 ± 68.2 nM | 34.5 ± 7.6 nM | 29
O=C(NCCCCN1CCN(c2ccnc3cc(C(F)(F)F)ccc23)CC1)N1CCN(c2ccccc2)CC1 [Compound 83, 4-Phenyl-N-(4-(4-(7-(trifluoromethyl)quinolin-4-yl)piperazin-1-yl)butyl)piperazine-1-carboxamide] | 1550 ± 349 nM | 112 ± 19.1 nM | 14
CC(C)(C)c1nc(N2CCN(CCCCNC(=O)N3CCN(S(=O)(=O)c4ccccc4)CC3)CC2)cc(C(F)(F)F)n1 [Compound 77, N-(4-(4-(2-(tert-Butyl)-6-(trifluoromethyl)pyrimidin-4-yl)piperazin-1-yl)butyl)-4-(phenylsulfonyl)piperazine-1-carboxamide] | 981 ± 73.9 nM | 138 ± 28.8 nM | 7
Cc1cccc(N2CCN(C(=O)NCCCCN3CCN(c4cc(C(F)(F)F)nc(C(C)(C)C)n4)CC3)CC2)c1C [Compound 24, N-(4-(4-(2-(tert-Butyl)-6-(trifluoromethyl)pyrimidin-4-yl)piperazin-1-yl)butyl)-4-(2,3-dimethylphenyl)piperazine-1-carboxamide] | 1180 ± 265 nM | 29.9 ± 5.6 nM | 39
COc1ccccc1N1CCN(C(=O)NCCCCN2CCN(c3cc(C(F)(F)F)nc(C(C)(C)C)n3)CC2)CC1 [Compound 19, N-(4-(4-(2-(tert-Butyl)-6-(trifluoromethyl)pyrimidin-4-yl)piperazin-1-yl)butyl)-4-(2-methoxyphenyl)piperazine-1-carboxamide] | 861 ± 137 nM | 25.2 ± 5.5 nM | 34
Cc1cccc(N2CCN(C(=O)NCCCCN3CCN(c4cc(C(F)(F)F)nc(C(C)(C)C)n4)CC3)CC2)c1 [Compound 22, N-(4-(4-(2-(tert-Butyl)-6-(trifluoromethyl)pyrimidin-4-yl)piperazin-1-yl)butyl)-4-(m-tolyl)piperazine-1-carboxamide] | 928 ± 231 nM | 24.7 ± 5.4 nM | 38
Cc1ccc2[nH]c3c(c2c1)CN(C(=O)NCCCCN1CCN(c2cc(C(F)(F)F)nc(C(C)(C)C)n2)CC1)CC3 [Compound 90, N-(4-(4-(2-(tert-Butyl)-6-(trifluoromethyl)pyrimidin-4-yl)piperazin-1-yl)butyl)-8-methyl-3,4-dihydro-1H-pyrido[4,3-b]indole-2(5H)-carboxamide] | 1340 ± 166 nM | 128 ± 30.3 nM | 10
CC(C)(C)c1nc(N2CCN(CCCCNC(=O)C3CCN(c4ccc(C(F)(F)F)cn4)CC3)CC2)cc(C(F)(F)F)n1 [Compound 110, N-(4-(4-(2-(tert-Butyl)-6-(trifluoromethyl)pyrimidin-4-yl)piperazin-1-yl)butyl)-1-(5-(trifluoromethyl)pyridin-2-yl)piperidine-4-carboxamide] | 1800 ± 257 nM | 167 ± 8.5 nM | 11
Cc1nc(N2CCN(CCCCNC(=O)N3CCn4c(C)nnc4C3)CC2)cc(C(C)(C)C)n1 [Compound 88, N-(4-(4-(6-(tert-Butyl)-2-methylpyrimidin-4-yl)piperazin-1-yl)butyl)-3-methyl-5,6-dihydro-[1,2,4]triazolo[4,3-a]pyrazine-7(8H)-carboxamide] | 10500 ± 2240 nM | 668 ± 122 nM | 16

Molecules with a lower Ki [1], results first:

Ki [1] | Ki [2] | D2/D3 (D3 selectivity ratio, D2 Ki/D3 Ki) [2] | Compound
605 ± 62 nM | 3.5 ± 0.7 nM | 173 | CC(C)(C)c1nc(N2CCN(CCCCNC(=O)N3CC(c4ccncc4)C3)CC2)cc(C(F)(F)F)n1 [Compound 38, N-(4-(4-(2-(tert-Butyl)-6-(trifluoromethyl)pyrimidin-4-yl)piperazin-1-yl)butyl)-3-(pyridin-4-yl)azetidine-1-carboxamide]
570 ± 119 nM | 46.6 ± 9.1 nM | 12 | CC(C)(C)c1nc(N2CCN(CCCCNC(=O)N3CCN(c4ccc(Cl)c(Cl)c4)CC3)CC2)cc(C(F)(F)F)n1 [Compound 60, N-(4-(4-(2-(tert-Butyl)-6-(trifluoromethyl)pyrimidin-4-yl)piperazin-1-yl)butyl)-4-(3,4-dichlorophenyl)piperazine-1-carboxamide]
515 ± 59.6 nM | 15.1 ± 2.8 nM | 34 | CC(C)(C)c1nc(C2CC2)cc(N2CCN(CCCCNC(=O)N3CCN(c4ccccc4)CC3)CC2)n1 [Compound 9, N-(4-(4-(2-(tert-Butyl)-6-cyclopropylpyrimidin-4-yl)piperazin-1-yl)butyl)-4-phenylpiperazine-1-carboxamide]
382 ± 91 nM | 28.3 ± 5.3 nM | 14 | Cc1nnc2n1CCN(C(=O)NCCCCN1CCN(c3cc(C(F)(F)F)nc(C(C)(C)C)n3)CC1)C2 [Compound 87, N-(4-(4-(2-(tert-Butyl)-6-(trifluoromethyl)pyrimidin-4-yl)piperazin-1-yl)butyl)-3-methyl-5,6-dihydro-[1,2,4]triazolo[4,3-a]pyrazine-7(8H)-carboxamide]
361 nM | 18.8 ± 3.5 nM | 19 | CC(C)(C)c1cc(N2CCN(CCCCNC(=O)c3cn4ccccc4n3)CC2)nc(C(C)(C)C)n1 [Compound 122, N-(4-(4-(2,6-Di-tert-butylpyrimidin-4-yl)piperazin-1-yl)butyl)imidazo[1,2-a]pyridine-2-carboxamide]
215 ± 54.1 nM | 29.8 ± 3.8 nM | 7 | CC(C)(C)c1nc(N2CCN(CCCCNC(=O)N3CCN(C4CCCCC4)CC3)CC2)cc(C(F)(F)F)n1 [Compound 69, N-(4-(4-(2-(tert-Butyl)-6-(trifluoromethyl)pyrimidin-4-yl)piperazin-1-yl)butyl)-4-cyclohexylpiperazine-1-carboxamide]
184 ± 46.6 nM | 13.8 ± 2.4 nM | 13 | CC(C)(C)c1nc(N2CCN(CCCCNC(=O)N3CCN(CC4CC4)CC3)CC2)cc(C(F)(F)F)n1 [Compound 68, N-(4-(4-(2-(tert-Butyl)-6-(trifluoromethyl)pyrimidin-4-yl)piperazin-1-yl)butyl)-4-(cyclopropylmethyl)piperazine-1-carboxamide]
128 ± 25.8 nM | 8.6 ± 1.1 nM | 15 | CCN1CCN(C(=O)NCCCCN2CCN(c3cc(C(F)(F)F)nc(C(C)(C)C)n3)CC2)CC1 [Compound 65, N-(4-(4-(2-(tert-Butyl)-6-(trifluoromethyl)pyrimidin-4-yl)piperazin-1-yl)butyl)-4-ethylpiperazine-1-carboxamide]
59.3 ± 7.5 nM | 9.9 ± 1.7 nM | 6 | CC(C)(C)c1nc(N2CCN(CCCCNC(=O)N3CCC(N4CCCCC4)CC3)CC2)cc(C(F)(F)F)n1 [Compound 75, N-(4-(4-(2-(tert-Butyl)-6-(trifluoromethyl)pyrimidin-4-yl)piperazin-1-yl)butyl)-[1,4′-bipiperidine]-1′-carboxamide]
